Laboratory results: patent US9394519B2, “Methods to produce mast cell culture” (Apollonian Biosystems Limited, priority 2011, dated 2016)
Ends that are not written are not given here.

Tests used:
human mast cells [1] = assay: Mast cell activation: release of histamine, PGD2 and IL-8 in response to stimuli; assay type: cell-based; conditions: human mast cells generated in Example 1, cultured 6 weeks or more; FIGS. 1-4
Protocol: To validate that the human mast cell cultures are functionally responsive, the release of histamine, prostaglandin D2 (PGD2) and interleukin-8 (IL-8) in response to stimulations by anti-IgE, aggregated IgG1, Toll-like receptor ligands, Substance P, compound 48/80 and ionophores was measured.
Cultured mast cells at week 6, week 9 and week 12 were harvested, counted and seeded into 24-well plates in complete IMDM with 100 ng/ml SCF and 50 ng/ml IL-6. • IgE-dependent activation: Human mast cells were first sensitized by 0.5 μg/ml human myeloma IgE (Merck) in culture medium overnight. Unbound IgE was then removed by washing once with PBS. […]
Histamine released into the reaction buffer and the remaining granular histamine in the pellets were collected and analyzed by using Bran+Luebbe Autoanalyzer (AAIII Autoanalyzer, Bran+Luebbe, Germany) which chemically extracted histamine from the samples as described by Siraganian (Siraganian, R. P. 1974, Analytical Biochemistry 57(2): 383-394). […] For all stimulation studies, histamine released into the supernatant was expressed as a percentage of total cellular histamine content and all histamine release values were corrected for the spontaneous histamine release in buffer alone. […]

mast cell tryptase = assay: Cell-based assay for screening tryptase inhibitors (MCP-1 degradation in medium of anti-IgE-stimulated mast cells); set-up: species or system human; conditions: for Inhibition of the degradation of MCP-1 in the reaction medium: 6-hour reaction medium of anti-IgE-stimulated mast cells incubated with inhibitor at 37° C. for 16 hours, FIG. 7
Protocol: Primary human mast cells with functional phenotype of connective tissue-type mast cells were derived from peripheral blood using the protocol described in Example 1. Cells were stimulated via the high-affinity IgE receptors (FcERI) using an anti-IgE antibody and kept under various conditions (see conditions A to G below) for 6 hours and 16 hours. The supernatants were then collected and the MCP-1 level in the supernatants was determined.

human mast cells [2] = assay: Inhibition of IgE-dependent degranulation (histamine release in response to anti-IgE); assay type: cell-based; conditions: IgE-sensitized human mast cells challenged with anti-IgE; FIG. 5
Protocol: Cultured mast cells at week 6, week 9 and week 12 were harvested, counted and seeded into 24-well plates in complete IMDM with 100 ng/ml SCF and 50 ng/ml IL-6. • IgE-dependent activation: Human mast cells were first sensitized by 0.5 μg/ml human myeloma IgE (Merck) in culture medium overnight. Unbound IgE was then removed by washing once with PBS. The cells were then resuspended in full HEPES buffer (FHB: 137 mM NaCl, 5.56 mM glucose, 12 mM HEPES, 2.7 mM KCl, 0.4 mM NaH2PO4 and 1 mM CaCl2 at pH 7.4) supplemented with 0.03% human albumin (HA) (for release of histamine and PGD2) or in IMDM with 10% FBS (for release of IL-8). […] 3.b Histamine Release Histamine released into the reaction buffer and the remaining granular histamine in the pellets were collected and analyzed by using Bran+Luebbe Autoanalyzer (AAIII Autoanalyzer, Bran+Luebbe, Germany) which chemically extracted histamine from the samples as described by Siraganian (Siraganian, R. P. 1974, Analytical Biochemistry 57(2): 383-394). […] For all stimulation studies, histamine released into the supernatant was expressed as a percentage of total cellular histamine content and all histamine release values were corrected for the spontaneous histamine release in buffer alone.

Molecule: Substance P (RPKPQQFFGLM; ends and bridges not checked; UniProt P20366 58-68, looked up)
- Release of histamine, PGD2 and IL-8 in response to stimulation (human mast cells [1]): Release of histamine, PGD2 and IL-8 was observed

Molecule: NC(=O)[C@@H]1CCCN1C(=O)[C@H](CCCN=C(N)N)NC(=O)c1ccc2ccccc2c1O [APC366]
- MCP-1 level relative to condition A (peak MCP-1 level at the 6th hour after stimulation) (mast cell tryptase; inhibitor added at 6th hour, 16 hours at 37° C., FIG. 8): approximate the same

Molecule: CC(C)(C)NCC(O)c1ccc(O)c(CO)c1 (centres unmarked) [Salbutamol]
- Inhibition of IgE-dependent degranulation (histamine release) (human mast cells [2]): can be inhibited

Molecule: CC(C)C[C@H](NC(=O)[C@@H](NC(=O)N[C@@H](Cc1ccccc1)C(=O)O)[C@@H]1CCN=C(N)N1)C(=O)N[C@H](C=O)Cc1ccccc1 [Chymostatin]
- Inhibition of the degradation of MCP-1 in the reaction medium (mast cell tryptase): not

Molecule: CC(C)C[C@H](NC(=O)[C@@H](O)[C@H](N)Cc1ccccc1)C(=O)O [Bestatin]
- Inhibition of the degradation of MCP-1 in the reaction medium (mast cell tryptase): not
